Data published in patent US20120022045A1, “BRIDGED COMPOUNDS AS HIV INTEGRASE INHIBITORS” (priority 2009, published 2012).
Where two headings read alike, the source gives them in different places.

How the values were obtained:
HIV-1 = assay: Inhibition of acute HIV-1 infection of T-lymphoid cells (spread assay); format: cell-based; conditions: 10% FBS, read-out: IC95 (nM) in the presence of 10% FBS
Procedure: Assays for the inhibition of acute HIV-1 infection of T-lymphoid cells were conducted in accordance with Vacca, J. P. et al., Proc. Natl. Acad. Sci. USA 1994, 91: 4096.

[1] = system: HIV-1 integrase mutant virus Y143R; assay: Single cycle infectivity assay in HeLa P4-2 cells, integrase mutant Y143R virus; format: cell-based; conditions: fold shift in IC50 versus wild type IIIB
Summary of the method: (§1)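 HeLa P4-2 cells used in a single-cycle acute HIV-1 infection assay. Wild-type IIIB or integrase mutant viruses made by site-directed mutagenesis of proviral plasmids and produced by transfection of 293T cells.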

HIV-1 wild type IIIB = assay: Single cycle infectivity assay in HeLa P4-2 cells, wild type virus; format: cell-based
Summary of the method: as §1

HIV-1 integrase = target: T1, HIV-1 integrase (Human immunodeficiency virus type 1 group M subtype B, UniProt P04585); assay: HIV integrase assay: strand transfer catalyzed by recombinant integrase; format: biochemical; conditions: strand transfer activity
T1 construct: strand transfer activity of HIV-1 integrase
Procedure: Assays for the strand transfer activity of HIV-1 integrase were conducted in accordance with WO 02/30930 for recombinant integrase.
Further description on conducting the assay using preassembled complexes is found in Wolfe, A. L. et al., J. Virol. 1996, 70: 1424-1432, Hazuda et al., J. Virol. 1997, 71: 7005-7011; Hazuda et al., Drug Design and Discovery 1997, 15: 17-24; and Hazuda et al., Science 2000, 287: 646-650.

[2] = system: HIV-1 integrase mutant virus G140S/Q148H; assay: Single cycle infectivity assay in HeLa P4-2 cells, integrase mutant G140S/Q148H virus; format: cell-based; conditions: fold shift in IC50 versus wild type IIIB
Summary of the method: as §1

[3] = system: HIV-1 integrase mutant virus Q148R; assay: Single cycle infectivity assay in HeLa P4-2 cells, integrase mutant Q148R virus; format: cell-based; conditions: fold shift in IC50 versus wild type IIIB
Summary of the method: as §1

[4] = system: HIV-1 integrase mutant virus N155H; assay: Single cycle infectivity assay in HeLa P4-2 cells, integrase mutant N155H virus; format: cell-based; conditions: fold shift in IC50 versus wild type IIIB
Summary of the method: as §1

[5] = Human immunodeficiency virus 1, T-lymphoid
[6] = Human immunodeficiency virus 1, IIIB, HeLaP4-2, wild type IIIB

Compound	IC95 (HIV-1) [nM]	Y143R (shift) [1] [fold]	IC50 (HIV-1 wild type IIIB; wild type IIIB) [nM]	IC50 (HIV-1 integrase) [nM]	G140S/Q148H (shift) [2] [fold]	Q148R (shift) [3] [fold]	N155H (shift) [4] [fold]	IC95 (HIV-1; [5]) [nM]	IC50 (HIV-1 wild type IIIB; [6]) [nM]
CC1C2CCC(N(C)C(=O)C(=O)N(C)C)(CC2)c2nc(C(=O)NCc3ccc(F)cc3)c(O)c(=O)n21 (single isomer, unassigned) [Example 13B, N-(4-{[(4-fluorobenzyl)amino]carbonyl}-5-hydroxy-8-methyl-6-oxo-3,7-diazatricyclo[7.2.2.0^2,7]trideca-2,4-dien-1-yl)-N′,N′,N″-trimethylethanediamide]	20	7	8	13	>209	57	30	–	–
CN(C(=O)C(=O)N1CCOCC1)C12CCC(CC1)Cn1c2nc(C(=O)NCc2ccc(F)cc2)c(O)c1=O [Example 3, N-(4-fluorobenzyl)-5-hydroxy-1-{methyl[morpholin-4-yl(oxo)acetyl]amino}-6-oxo-3,7-diazatricyclo[7.2.2.0^2,7]trideca-2,4-diene-4-carboxamide]	–	1	–	32	9	2	2	11	31
Cc1cc(CNC(=O)c2nc3n(c(=O)c2O)CC2CCC3(N(C)C(=O)C(=O)N(C)C)CO2)ccc1F (single isomer, unassigned) [Example 11B]	7.8	1	112	14	14	2	5	–	–
CC1C2CCC(N(C)C(=O)C(=O)N(C)C)(CC2)c2nc(C(=O)NCc3ccc(F)cc3)c(O)c(=O)n21 (single isomer, unassigned) [Example 13A, N-(4-{[(4-fluorobenzyl)amino]carbonyl}-5-hydroxy-8-methyl-6-oxo-3,7-diazatricyclo[7.2.2.0^2,7]trideca-2,4-dien-1-yl)-N′,N′,N″-trimethylethanediamide]	8.6	2	–	13	2	1	2	–	7
Cc1cc(CNC(=O)c2nc3n(c(=O)c2O)CC2CCC3(N(C)C(=O)C(=O)N(C)C)CO2)ccc1F (single isomer, unassigned) [Example 11A]	17	2	21	37	>79	8	10	–	–
N-5-{[(4-fluorolbenzyl)amino]carbonyl}-4-hydroxy-3-oxo-2,6-diazatricyclo[6.3.2.0^2,7]trideca-4,6-dien-8-yl)-N,N′,N′-trimethylethanediamide [Example 24B]	7.4	2	7	24	6	1	3	–	–
O=C(NC12CCC(CC1)Cn1c2nc(C(=O)NCc2ccc(F)cc2)c(O)c1=O)C(=O)N1CCOCC1 [Example 6, N-(4-Fluorobenzyl)-3-hydroxy-10-{[morpholin-4-yl(oxo)acetyl]amino}-4-oxo-4,6,7,8,9,10-hexahydro-7,10-ethanopyrimido[1,2-a]azepine-2-carboxamide]	–	1	–	37	5	2	2	5.3	9
CN(C)C(=O)C(=O)N(C)C12CCC(Cn3c1nc(C(=O)NCc1ccc(F)cc1)c(O)c3=O)OC2 (single isomer, unassigned) [Example 10A, N-(4-{[(4-fluorobenzyl)amino]carbonyl}-5-hydroxy-6-oxo-10-oxa-3,7-diazatricyclo[7.2.2.0^2,7]trideca-2,4-dien-1-yl)-N′,N′N′-trimethylethanediamide]	9.0	1	221	5	26	4	5	–	–
Cc1cc(CNC(=O)c2nc3n(c(=O)c2O)CC2CCC3(N(C)C(=O)C(=O)N(C)C)CC2)ccc1F [Example 2, N-(4-{[(4-fluoro-3-methylbenzyl)amino]carbonyl}-5-hydroxy-6-oxo-3,7-diazatricyclo[7.2.2.0^2,7]trideca-2,4-dien-1-yl)-N,N′,N″-trimethylethanediamide]	–	1	–	15	5	2	2	7.2	4
CN(C)C(=O)C(=O)NC12CCC(CC1)Cn1c2nc(C(=O)NCc2ccc(F)cc2)c(O)c1=O [Example 5, N′-{2-[(4-fluorobenzyl)carbamoyl]-3-hydroxy-4-oxo-6,7,8,9-tetrahydro-7,10-ethanopyrimido[1,2-a]azepin-10(4H)-yl}-N,N-dimethylethanediamide]	–	1	–	33	9	1	2	< 3.9	6.7
CCN(C(=O)C(=O)N(C)C)C12CCC(Cn3c1nc(C(=O)NCc1ccc(F)cc1)c(O)c3=O)OC2 (single isomer, unassigned) [Example 12B, N-Ethyl-N-(4-{[(4-fluorobenzyl)amino]carbonyl}-5-hydroxy-6-oxo-10-oxa-3,7-diazatricyclo[7.2.2.0^2,7]trideca-2,4-dien-1-yl)-N′,N′-dimethylethanediamide]	19	7	7	18	240	32	56	–	–
CN(C)C(=O)C(=O)N(C)C12CCC(Cn3c1nc(C(=O)NCc1ccc(F)cc1)c(O)c3=O)OC2 (single isomer, unassigned) [Example 10B, N-(4-{[(4-Fluorobenzyl)amino]carbonyl}-5-hydroxy-6-oxo-10-oxa-3,7-diazatricyclo[7.2.2.0^2,7]trideca-2,4-dien-1-yl)-N′,N′,N′-trimethylethanediamide]	15	6	30	14	12	22	18	–	–
CN1CCN(C(=O)C(=O)N(C)C23CCC(CC2)Cn2c3nc(C(=O)NCc3ccc(F)cc3)c(O)c2=O)CC1 [Example 4]	–	1	–	14	4	3	4	39	33
CN(C)C(=O)C(=O)N(C)C12CCC(CC1)Cn1c2nc(C(=O)NCc2ccc(F)cc2)c(O)c1=O [Example 1, N-(4-{[(4-fluorobenzyl)amino]carbonyl}-5-hydroxy-6-oxo-3,7-diazatricyclo[7.2.2.0^2,7]trideca-2,4-dien-1-yl)-N′,N′,N″-trimethylethanediamide]	–	2	–	13	15	2	3	6.2	7.2
CCN(C(=O)C(=O)N(C)C)C12CCC(Cn3c1nc(C(=O)NCc1ccc(F)cc1)c(O)c3=O)OC2 (single isomer, unassigned) [Example 12A, N-Ethyl-N-(4-{[(4-fluorobenzyl)amino]carbonyl}-5-hydroxy-6-oxo-10-oxa-3,7-diazatricyclo[7.2.2.0^2,7]trideca-2,4-dien-1-yl)-N′,N′-dimethylethanediamide]	–	2	23	11	112	7	6	11	–
